# Source: US20210206758A1, “NAPHTHYRIDINES AS INTEGRIN ANTAGONISTS” (GlaxoSmithKline Intellectual Property Development Limited, priority 2016, published 2021)
# Values joined by “and” are separate entries in the source; they are usually repeats but may differ in a detail not shown here. Identical values can stand only once.
# Key:
# Format in all cases: cell-based
# αvβ6 = target: T1, αvβ6 (Homo sapiens, UniProt P06756+P18564); assay: Cell adhesion assay, K562-αvβ6 (LAP-b1); settings: K562-αvβ6 cells, ligand LAP-b1, 2 mM MgCl2; for IC50: mean, read-out: αvβ6 pIC50 (mean affinity, cell Adhesion Assay) (converted)
# T1 construct: expressed in transfected cells; host or cells: K562
# Method: (§1) Reagents and methods utilised are as described [Ludbrook et al, Biochem. J. 2003, 369, 311 and Macdonald et al. ACS Med. Chem. Lett. 2014, 5, 1207-1212 for αvβ8 assay), with the following points of clarification. The following cell lines are used, with ligands in brackets: K562-αvβ3 (LAP-b1), K562-αvβ5 (Vitronectin), K562-αvβ6 (LAP-b1), K562-αvβ8 (LAP-b1), A549-αvβ1 (LAP-b1). The divalent cation used to facilitate adhesion is 2 mM MgCl2. Adhesion is quantified by cell labelling with the fluorescent dye BCECF-AM (Life Technologies), where cell suspensions at 3×10^6 cells/mL are incubated with 0.33 uL/mL of 30 mM BCECF-AM at 37° C. for 10 minutes, then 50 μL/well are dispensed into the 96-well assay plate. At the assay conclusion cells that adhered are lysed using 50 μL/well of 0.5% Triton X-100 in H2O to release fluorescence. Fluorescence intensity is detected using an Envision® plate reader (Perkin Elmer). For active antagonists in the assay, data is fitted to a 4 parameter logistic equation for IC50 determinations.
# αvβ1 = target: T2, αvβ1 (Homo sapiens, UniProt P05556+P06756); assay: Cell adhesion assay, A549-αvβ1 (LAP-b1); settings: A549-αvβ1 cells, ligand LAP-b1, 2 mM MgCl2; for IC50: mean, read-out: αvβ1 pIC50 (mean affinity, cell Adhesion Assay) (converted)
# T2 construct: host or cells: A549
# Method: as §1
# αvβ3 = target: T3, αvβ3 (Homo sapiens, UniProt P05106+P06756); assay: Cell adhesion assay, K562-αvβ3 (LAP-b1); settings: K562-αvβ3 cells, ligand LAP-b1, 2 mM MgCl2; for IC50: mean, read-out: αvβ3 pIC50 (mean affinity, cell Adhesion Assay) (converted)
# T3 construct: expressed in transfected cells; host or cells: K562
# Method: as §1
# αvβ5 = target: T4, αvβ5 (Homo sapiens, UniProt P06756+P18084); assay: Cell adhesion assay, K562-αvβ5 (Vitronectin); settings: K562-αvβ5 cells, ligand Vitronectin, 2 mM MgCl2; for IC50: mean, read-out: αvβ5 pIC50 (mean affinity, cell Adhesion Assay) (converted)
# T4 construct: expressed in transfected cells; host or cells: K562
# Method: as §1
# αvβ8 = target: T5, αvβ8 (Homo sapiens, UniProt P06756+P26012); assay: Cell adhesion assay, K562-αvβ8 (LAP-b1); settings: K562-αvβ8 cells, ligand LAP-b1, 2 mM MgCl2; for IC50: mean, read-out: αvβ8 pIC50 (mean affinity, cell Adhesion Assay) (converted)
# T5 construct: expressed in transfected cells; host or cells: K562
# Method: as §1
# T3 sequence (P06756 31-889 limits assumed): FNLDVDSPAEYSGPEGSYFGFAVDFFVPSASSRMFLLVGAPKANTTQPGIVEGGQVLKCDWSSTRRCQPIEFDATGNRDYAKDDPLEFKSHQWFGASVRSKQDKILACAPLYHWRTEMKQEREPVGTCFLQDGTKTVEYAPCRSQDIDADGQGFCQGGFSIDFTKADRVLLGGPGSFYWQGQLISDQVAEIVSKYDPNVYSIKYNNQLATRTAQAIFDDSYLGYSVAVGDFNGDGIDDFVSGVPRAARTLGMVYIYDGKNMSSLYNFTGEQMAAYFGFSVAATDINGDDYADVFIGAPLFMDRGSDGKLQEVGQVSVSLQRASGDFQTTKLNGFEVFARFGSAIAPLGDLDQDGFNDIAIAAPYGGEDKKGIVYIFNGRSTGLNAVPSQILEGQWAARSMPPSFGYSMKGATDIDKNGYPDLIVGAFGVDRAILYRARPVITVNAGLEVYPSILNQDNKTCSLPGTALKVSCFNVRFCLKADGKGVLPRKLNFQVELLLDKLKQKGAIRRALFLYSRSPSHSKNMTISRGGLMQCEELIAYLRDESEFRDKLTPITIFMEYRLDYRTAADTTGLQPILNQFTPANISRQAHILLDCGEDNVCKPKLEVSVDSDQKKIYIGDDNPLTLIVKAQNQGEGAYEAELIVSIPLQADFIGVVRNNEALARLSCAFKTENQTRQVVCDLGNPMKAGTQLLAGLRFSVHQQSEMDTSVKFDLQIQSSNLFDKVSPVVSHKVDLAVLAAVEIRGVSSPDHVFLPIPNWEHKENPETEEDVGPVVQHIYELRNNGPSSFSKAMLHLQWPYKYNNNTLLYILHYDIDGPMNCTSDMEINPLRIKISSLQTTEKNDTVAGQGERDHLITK
# T3 sequence (P06756 891-1048 partner limits assumed): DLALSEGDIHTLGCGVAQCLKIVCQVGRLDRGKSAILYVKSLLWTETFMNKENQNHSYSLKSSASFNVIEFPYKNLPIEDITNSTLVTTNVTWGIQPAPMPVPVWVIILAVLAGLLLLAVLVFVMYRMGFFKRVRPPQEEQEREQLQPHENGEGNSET
# T3 sequence (P05106 27-788): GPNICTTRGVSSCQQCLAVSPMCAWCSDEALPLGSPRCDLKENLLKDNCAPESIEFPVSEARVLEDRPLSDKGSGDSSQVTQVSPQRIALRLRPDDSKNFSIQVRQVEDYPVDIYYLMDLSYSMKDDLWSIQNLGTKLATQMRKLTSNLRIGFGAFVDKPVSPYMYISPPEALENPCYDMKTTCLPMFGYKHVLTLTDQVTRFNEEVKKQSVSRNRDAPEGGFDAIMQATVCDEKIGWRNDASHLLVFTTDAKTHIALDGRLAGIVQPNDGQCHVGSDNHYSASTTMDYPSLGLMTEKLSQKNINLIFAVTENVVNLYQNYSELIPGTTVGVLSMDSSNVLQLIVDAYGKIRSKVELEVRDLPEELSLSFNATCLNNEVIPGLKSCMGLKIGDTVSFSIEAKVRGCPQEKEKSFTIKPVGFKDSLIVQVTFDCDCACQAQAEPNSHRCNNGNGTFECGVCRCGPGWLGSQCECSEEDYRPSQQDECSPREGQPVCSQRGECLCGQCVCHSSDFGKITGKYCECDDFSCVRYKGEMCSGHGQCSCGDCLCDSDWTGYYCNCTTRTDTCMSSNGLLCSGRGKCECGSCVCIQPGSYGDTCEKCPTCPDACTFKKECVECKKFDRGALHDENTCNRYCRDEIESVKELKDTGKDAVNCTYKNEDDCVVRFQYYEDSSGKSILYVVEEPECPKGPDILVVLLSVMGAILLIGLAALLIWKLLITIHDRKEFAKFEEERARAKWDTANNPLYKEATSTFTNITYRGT
# T5 sequence (P06756 31-889 limits assumed): as the sequence (P06756 31-889 limits assumed) above
# T5 sequence (P06756 891-1048 partner limits assumed): as the sequence (P06756 891-1048 partner limits assumed) above
# T5 sequence (P26012 43-769): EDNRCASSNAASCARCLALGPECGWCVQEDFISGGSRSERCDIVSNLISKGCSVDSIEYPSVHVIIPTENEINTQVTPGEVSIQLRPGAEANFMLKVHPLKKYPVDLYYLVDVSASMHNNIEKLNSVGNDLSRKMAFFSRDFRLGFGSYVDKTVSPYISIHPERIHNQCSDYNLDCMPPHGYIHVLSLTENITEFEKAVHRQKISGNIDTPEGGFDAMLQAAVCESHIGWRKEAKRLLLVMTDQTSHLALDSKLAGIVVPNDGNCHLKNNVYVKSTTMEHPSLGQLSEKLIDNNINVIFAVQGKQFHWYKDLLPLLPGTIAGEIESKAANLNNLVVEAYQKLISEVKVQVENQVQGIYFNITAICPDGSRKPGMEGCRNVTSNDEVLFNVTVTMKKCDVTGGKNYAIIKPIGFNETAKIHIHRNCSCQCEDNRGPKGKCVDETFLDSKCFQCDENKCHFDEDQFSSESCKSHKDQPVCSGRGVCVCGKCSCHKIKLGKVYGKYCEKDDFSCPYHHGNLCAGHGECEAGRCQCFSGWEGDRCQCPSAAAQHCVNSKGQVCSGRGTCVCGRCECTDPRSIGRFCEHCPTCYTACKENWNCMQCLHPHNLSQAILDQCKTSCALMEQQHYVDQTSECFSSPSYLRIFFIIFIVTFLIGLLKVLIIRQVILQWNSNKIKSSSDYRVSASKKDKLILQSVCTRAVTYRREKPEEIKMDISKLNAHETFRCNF
# T2 sequence (P06756 31-889 limits assumed): as the sequence (P06756 31-889 limits assumed) above
# T2 sequence (P06756 891-1048 partner limits assumed): as the sequence (P06756 891-1048 partner limits assumed) above
# T2 sequence (P05556 21-798): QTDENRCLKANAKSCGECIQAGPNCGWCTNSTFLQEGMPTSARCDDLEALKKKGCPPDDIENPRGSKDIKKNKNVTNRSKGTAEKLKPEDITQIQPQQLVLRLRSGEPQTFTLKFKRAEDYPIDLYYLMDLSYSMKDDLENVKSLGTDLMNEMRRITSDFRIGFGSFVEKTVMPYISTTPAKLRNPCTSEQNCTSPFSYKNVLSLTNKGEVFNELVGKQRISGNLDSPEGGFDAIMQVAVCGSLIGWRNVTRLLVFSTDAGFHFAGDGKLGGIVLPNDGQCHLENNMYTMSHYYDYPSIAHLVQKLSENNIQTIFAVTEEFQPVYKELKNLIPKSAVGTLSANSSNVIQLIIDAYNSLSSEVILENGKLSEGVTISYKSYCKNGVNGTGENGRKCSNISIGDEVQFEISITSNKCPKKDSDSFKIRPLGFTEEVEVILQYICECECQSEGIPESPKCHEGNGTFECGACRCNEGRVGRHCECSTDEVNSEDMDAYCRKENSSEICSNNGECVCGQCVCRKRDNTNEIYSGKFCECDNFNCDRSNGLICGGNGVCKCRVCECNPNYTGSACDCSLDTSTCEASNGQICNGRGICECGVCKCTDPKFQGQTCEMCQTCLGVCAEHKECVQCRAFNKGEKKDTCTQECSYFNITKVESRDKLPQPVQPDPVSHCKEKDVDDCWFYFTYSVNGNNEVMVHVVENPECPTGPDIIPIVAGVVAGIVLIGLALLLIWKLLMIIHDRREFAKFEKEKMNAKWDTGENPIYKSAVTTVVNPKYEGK
# T1 sequence (P06756 31-889 limits assumed): as the sequence (P06756 31-889 limits assumed) above
# T1 sequence (P06756 891-1048 partner limits assumed): as the sequence (P06756 891-1048 partner limits assumed) above
# T1 sequence (P18564 22-788): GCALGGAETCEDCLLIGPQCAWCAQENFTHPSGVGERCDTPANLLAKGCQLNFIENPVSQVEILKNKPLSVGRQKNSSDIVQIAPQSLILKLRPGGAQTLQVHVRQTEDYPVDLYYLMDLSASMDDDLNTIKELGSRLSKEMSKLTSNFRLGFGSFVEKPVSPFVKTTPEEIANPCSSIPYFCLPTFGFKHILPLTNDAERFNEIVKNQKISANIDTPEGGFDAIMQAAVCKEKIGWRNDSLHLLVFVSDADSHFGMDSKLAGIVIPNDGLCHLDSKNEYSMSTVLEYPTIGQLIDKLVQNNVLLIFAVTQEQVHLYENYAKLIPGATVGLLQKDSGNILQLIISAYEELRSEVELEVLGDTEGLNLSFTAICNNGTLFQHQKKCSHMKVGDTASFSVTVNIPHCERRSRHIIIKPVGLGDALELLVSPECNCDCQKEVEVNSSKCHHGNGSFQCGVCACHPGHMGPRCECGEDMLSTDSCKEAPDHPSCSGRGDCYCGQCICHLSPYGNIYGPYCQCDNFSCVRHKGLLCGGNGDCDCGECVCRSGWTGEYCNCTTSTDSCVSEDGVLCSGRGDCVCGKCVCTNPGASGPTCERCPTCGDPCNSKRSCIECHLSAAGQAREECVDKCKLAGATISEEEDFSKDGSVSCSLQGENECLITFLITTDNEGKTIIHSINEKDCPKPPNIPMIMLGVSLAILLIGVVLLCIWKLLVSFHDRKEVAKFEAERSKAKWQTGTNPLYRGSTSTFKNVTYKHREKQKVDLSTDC
SMILES,IC50 (αvβ6),IC50 (αvβ1) [nM],IC50 (αvβ3) [nM],IC50 (αvβ5) [nM],IC50 (αvβ8) [nM],"αvβ1 pIC50 (mean affinity, cell Adhesion Assay) (αvβ1)","αvβ3 pIC50 (mean affinity, cell Adhesion Assay) (αvβ3)","αvβ5 pIC50 (mean affinity, cell Adhesion Assay) (αvβ5)","αvβ6 pIC50 (mean affinity, cell Adhesion Assay) (αvβ6)","αvβ8 pIC50 (mean affinity, cell Adhesion Assay) (αvβ8)"
"O=C(O)C[C@H](CN1CC[C@@](F)(CCc2ccc3c(n2)NCCC3)C1)c1cccc(C2CCOC2)c1 (single isomer, unassigned; isomer 1) [Example 10]",12.6 nM,398,63.1,79.4,20,–,–,–,–,–
"O=C(O)C[C@H](CN1CC[C@@](F)(CCc2ccc3c(n2)NCCC3)C1)c1cccc(C2CCOC2)c1 (single isomer, unassigned; isomer 2) [Example 11]",–,126,–,126,–,–,–,–,–,–
"O=C(O)C[C@H](CN1CC[C@@](F)(CCc2ccc3c(n2)NCCC3)C1)c1cccc(OC[C@H]2CCCO2)c1 [Example 1, (S)-4-((S)-3-Fluoro-3-(2-(5,6,7,8-tetrahydro-1,8-naphthyridin-2-yl)ethyl)pyrrolidin-1-yl)-3-(3-(((R)-tetrahydrofuran-2-yl)methoxy)phenyl)butanoic acid]",25.1 nM,2000,79.4,251,100,–,–,–,–,–
"O=C(O)C[C@H](CN1CC[C@@](F)(CCc2ccc3c(n2)NCCC3)C1)c1cccc(OC[C@@H]2CCCO2)c1 [Example 2, (S)-4-((S)-3-Fluoro-3-(2-(5,6,7,8-tetrahydro-1,8-naphthyridin-2-yl)ethyl)pyrrolidin-1-yl)-3-(3-(((S)-tetrahydrofuran-2-yl)methoxy)phenyl)butanoic acid]",15.8 nM,1000,–,100,100,–,–,–,–,–
"O=C(O)C[C@H](CN1CC[C@@](F)(CCc2ccc3c(n2)NCCC3)C1)c1cccc(O[C@@H]2CCOC2)c1 [Example 3, (S)-4-((S)-3-Fluoro-3-(2-(5,6,7,8-tetrahydro-1,8-naphthyridin-2-yl)ethyl)pyrrolidin-1-yl)-3-(3-(((R)-tetrahydrofuran-3-yl)oxy)phenyl)butanoic acid]",5.01 nM,200,100,39.8,50.1,–,–,–,–,–
"O=C(O)C[C@H](CN1CC[C@@](F)(CCc2ccc3c(n2)NCCC3)C1)c1cccc(O[C@H]2CCOC2)c1 [Example 4, (S)-4-((S)-3-Fluoro-3-(2-(5,6,7,8-tetrahydro-1,8-naphthyridin-2-yl)ethyl)pyrrolidin-1-yl)-3-(3-(((S)-tetrahydrofuran-3-yl)oxy)phenyl)butanoic acid]",5.01 nM,100,50.1,79.4,31.6,–,–,–,–,–
CO[C@H](C)COc1cccc([C@H](CC(=O)O)CN2CC[C@@](F)(CCc3ccc4c(n3)NCCC4)C2)c1 [Example 5],12.6 nM,200,31.6,25.1,31.6,–,–,–,–,–
CO[C@@H](C)COc1cccc([C@H](CC(=O)O)CN2CC[C@@](F)(CCc3ccc4c(n3)NCCC4)C2)c1 [Example 6],12.6 nM,126,63.1,316,39.8,–,–,–,–,–
"COCC(C)(C)Oc1cccc([C@H](CC(=O)O)CN2CC[C@@](F)(CCc3ccc4c(n3)NCCC4)C2)c1 [Example 7, (S)-4-((S)-3-Fluoro-3-(2-(5,6,7,8-tetrahydro-1,8-naphthyridin-2-yl)ethyl)pyrrolidin-1-yl)-3-(3-((1-methoxy-2-methylpropan-2-yl)oxy)phenyl)butanoic acid]",20 nM,63.1,79.4,63.1,50.1,–,–,–,–,–
"O=C(O)C[C@H](CN1CC[C@@](F)(CCc2ccc3c(n2)NCCC3)C1)c1cccc(OC2COC2)c1 [Example 8, (S)-4-((S)-3-Fluoro-3-(2-(5,6,7,8-tetrahydro-1,8-naphthyridin-2-yl)ethyl)pyrrolidin-1-yl)-3-(3-(oxetan-3-yloxy)phenyl)butanoic acid]",12.6 nM,398,100,63.1,31.6,–,–,–,–,–
"COCCOc1cc(OCCOC)cc([C@H](CC(=O)O)CN2CC[C@@](F)(CCc3ccc4c(n3)NCCC4)C2)c1 [Example 9, (S)-3-(3,5-Bis(2-methoxyethoxy)phenyl)-4-((S)-3-fluoro-3-(2-(5,6,7,8-tetrahydro-1,8-naphthyridin-2-yl)ethyl)pyrrolidin-1-yl)butanoic acid]",10 nM,1000,–,–,50.1,–,–,–,–,–
"O=C(O)C[C@H](CN1CC[C@@](F)(CCc2ccc3c(n2)NCCC3)C1)c1cccc(OCC2COC2)c1 [Example 12, (S)-4-((S)-3-Fluoro-3-(2-(5,6,7,8-tetrahydro-1,8-naphthyridin-2-yl)ethyl)pyrrolidin-1-yl)-3-(3-(oxetan-3-ylmethoxy)phenyl)butanoic acid]",15.8 nM,251,63.1,31.6,25.1,–,–,–,–,–
"COCCOc1cc(OCCF)cc(C(CC(=O)O)CN2CC[C@@](F)(CCc3ccc4c(n3)NCCC4)C2)c1 (stereo partly drawn) [Example 13, 4-((S)-3-Fluoro-3-(2-(5,6,7,8-tetrahydro-1,8-naphthyridin-2-yl)ethyl)pyrrolidin-1-yl)-3-(3-(2-fluoroethoxy)-5-(2-methoxyethoxy)phenyl)butanoic acid]",10 nM,126,79.4,100,31.6,–,–,–,–,–
"COCCOc1ccc(F)c(C(CC(=O)O)CN2CC[C@@](F)(CCc3ccc4c(n3)NCCC4)C2)c1 (stereo partly drawn) [Example 14, 4-((S)-3-Fluoro-3-(2-(5,6,7,8-tetrahydro-1,8-naphthyridin-2-yl)ethyl)pyrrolidin-1-yl)-3-(2-fluoro-5-(2-methoxyethoxy)phenyl)butanoic acid]",25.1 nM,2000,501,25.1,158,–,–,–,–,–
"O=C(O)C[C@H](CN1CC[C@@](F)(CCc2ccc3c(n2)NCCC3)C1)c1cccc(OC2CCOCC2)c1 [Example 15, (S)-4-((S)-3-Fluoro-3-(2-(5,6,7,8-tetrahydro-1,8-naphthyridin-2-yl)ethyl)pyrrolidin-1-yl)-3-(3-((tetrahydro-2H-pyran-4-yl)oxy)phenyl)butanoic acid]",10 nM and 12.6 nM,316,20,39.8,–,–,–,–,–,–
"O=C(O)CC(O)(CC(=O)O)C(=O)O.O=C(O)C[C@H](CN1CC[C@@](F)(CCc2ccc3c(n2)NCCC3)C1)c1cccc(O[C@@H]2CCOC2)c1 [Example 16, (S)-4-((S)-3-Fluoro-3-(2-(5,6,7,8-tetrahydro-1,8-naphthyridin-2-yl)ethyl)pyrrolidin-1-yl)-3-(3-(((R)-tetrahydrofuran-3-yl)oxy)phenyl)butanoic acid (1:1) citrate salt]",–,–,–,–,–,6.8,7.6,7.4,–,–
"O=C(O)/C=C\C(=O)O.O=C(O)C[C@H](CN1CC[C@@](F)(CCc2ccc3c(n2)NCCC3)C1)c1cccc(O[C@@H]2CCOC2)c1 [Example 17, (S)-4-((S)-3-Fluoro-3-(2-(5,6,7,8-tetrahydro-1,8-naphthyridin-2-yl)ethyl)pyrrolidin-1-yl)-3-(3-(((R)-tetrahydrofuran-3-yl)oxy)phenyl)butanoic acid (1:1) maleate salt]",–,–,–,–,–,6.9,7.3,8.1,8.2,7.7
"O=C(O)CC(O)(CC(=O)O)C(=O)O.O=C(O)C[C@H](CN1CC[C@@](F)(CCc2ccc3c(n2)NCCC3)C1)c1cccc(O[C@H]2CCOC2)c1 [Example 18, (S)-4-((S)-3-Fluoro-3-(2-(5,6,7,8-tetrahydro-1,8-naphthyridin-2-yl)ethyl)pyrrolidin-1-yl)-3-(3-(((S)-tetrahydrofuran-3-yl)oxy)phenyl)butanoic acid (1:1) citrate salt]",–,–,–,–,–,6.4,7.3,7.5,8.3,7.7
